Measurements from publication PMC7918738, “Microtubule Destabilizing Sulfonamides as an Alternative to Taxane-Based Chemotherapy” (International Journal of Molecular Sciences, 2021).

How the values were obtained:
[1] = tested on: MCF7 (breast adenocarcinoma); assay: Antiproliferative activity against MCF7 (XTT colorimetric method); format: cell-based; details: Homo sapiens, 72 h treatment
Method: (§1) The in vitro antiproliferative activity of MDS at 1 µM after 72 h treatments was evaluated by a colorimetric method against the human tumor cell lines HeLa (cervix epithelioid carcinoma) and MCF7 (breast adenocarcinoma). Compounds showing more than 40% inhibition at 1 µM in at least three independent assays were evaluated in a range of concentrations between 0.1 nM and 10 µM for the determination of half-maximal inhibitory concentrations (IC50) (Table 1). Paclitaxel, CA-4, and ABT-751 were used as references.
(§2) MCF7 (human breast carcinoma), SKOV-3 (human ovarian carcinoma), OVCAR-3 (human ovarian carcinoma), OVCAR-8 (human ovarian carcinoma), and HeLa (human cervical carcinoma) cell lines were cultured in Dulbecco’s Modified Eagle’s Medium (DMEM) (Gibco, Thermo Fischer Scientific) containing 10% (v/v) heat-inactivated fetal bovine serum (HIFBS) (Lonza-Cambrex, Karlskoga, Sweden), 2 mM L-glutamine (Lonza-Cambrex, Karlskoga, Sweden), 100 μg/mL streptomycin, and 100 IU/mL penicillin (Lonza-Cambrex) at 37 °C in humidified 95% air and 5% CO2. HT-29 (human colon carcinoma), IGROV-1 (human ovarian carcinoma), and A2780 (human ovarian carcinoma) cell lines were cultured in RPMI 1640 medium (Gibco, Thermo Fischer Scientific) supplemented with 10% HIFBS, 100 μg/mL streptomycin, and 100 IU/mL penicillin at 37 °C in humidified 95% air and 5% CO2 atmosphere. The presence of mycoplasma was routinely checked with MycoAlert kit (Lonza-Cambrex) and only mycoplasma-free cells were used in the experiments. Ovarian tumor cell lines were originally acquired from Dr Atanasio Pandiella from Centro de Investigación del Cáncer (CIC), Salamanca, Spain. HeLa, HT-29 and MCF7 tumor cell lines were provided by Dr Faustino Mollinedo from Centro de Investigaciones Biológicas Margarita Salas, Madrid, Spain.
(§3) MCF7, HeLa, and HT-29 cell proliferation, when treated with the corresponding compounds, were determined using the XTT (sodium 3’-[1(phenylaminocarbonyl)-3,4-tetrazolium]-bis(4-methoxy-6-nitro)-benzenesulfonic acid hydrate) cell proliferation kit (Roche Molecular Biochemicals, Mannheim, Germany). A freshly prepared mixture of XTT labeling reagent with 0.02% (v/v) PMS (N-methyl-dibenzopyrazine methyl sulfate) electron coupling reagent was added to cells (50 µL/well in 96-well plates, total volume of 160 µL/well). Cells were incubated under standard culture conditions for 4 h (MCF7 and HeLa) or 6 h (HT-29). The absorbance of the formazan product generated was measured at 450 nm using a multi-well plate reader. SKOV-3, OVCAR-3, OVCAR-8, IGROV-1, A-2780 cell proliferation, when treated with the corresponding compound, were determined using MTT (3-(4,5-dimethylthiazol-2-yl)-2,5-diphenyl-2H-tetrazolium bromide) (Sigma-Aldrich, St. Louis, MO, USA). MTT in Phosphate Buffer Saline (PBS) (5 mg/ml) was added to cells (110 µL/well in 24-well plates, total volume of 1110 µL/well). After 1 hour of incubation, the medium was aspirated, and formazan violet crystals were dissolved in dimethyl sulfoxide (DMSO) (500 µL/well). Absorbance was measured at 570 nm in a plate reader (Ultra Evolution, Tecan, Männedorf, Suiza). To determine cell viability, cells in exponential growth phase were seeded (100 µL/well in 96-well plates and 1000 µL/well in 24-well plates) with appropriate cell line concentration (1.5·10^4 cells/mL for MCF7 and HeLa, 3·10^4 cells/mL for HT-29, and 1·10^4 cells/mL for SKOV-3, OVCAR-3, OVCAR-8, IGROV-1, and A-2780) in complete RPMI 1640 or DMEM medium at 37°C and 5% CO2 atmosphere. After 24 h incubation, to allow cells to attach to the plates, all compounds were added at 1 µM concentration and the effect on the proliferation was evaluated 72 h post-treatment. Compounds showing antiproliferative effects at tested concentration were selected for IC50 calculation (50% inhibitory concentration with respect to the untreated controls) from 10^−5 to 10^−10 M concentration. Non-linear curves fitting the experimental data were carried out for each compound. […]

[2] = tested on: tubulin (microtubular protein isolated from calf brain); assay: Tubulin Polymerization Inhibition (TPI) assay, turbidity; format: biochemical; details: 1.5 mg/mL microtubular protein; for TPI % 10 µM: compound at 10 µM
Method: The effect of all the synthesized compounds on the in vitro tubulin polymerization was evaluated at 10 µM. All the compounds that inhibited polymerization more than 30% were also assayed at 20 µM. IC50 values were calculated for those compounds inhibiting tubulin polymerization by at least 50% at 20 µM (Table 1 and Supplemental Figure S2).
Microtubular protein was isolated from calf brain according to the modified Shelanski method by two cycles of temperature-dependent assembly/disassembly and stored at −80 °C. Before each use, protein concentration was determined by the Bradford method taking BSA as standard.
Tubulin polymerization was monitored using a Helios α spectrophotometer by measuring the increase in turbidity at 450 nm, caused by a shift from 4 °C to 37 °C, which allows the in vitro microtubular protein to depolymerize and polymerize, respectively. The assay was carried out in quartz cuvettes containing 1.5 mg/mL microtubular protein and the ligand (except for control cuvette with only DMSO at the same concentration) in a mixture of 0.1 M MES buffer, 1 mM EGTA, 1 mM MgCl2, 1 mM β-ME, and 1.5 mM GTP at pH 6.7 (final volume 500 µL). Cuvettes were preincubated at 20 °C for 30 min, to allow ligand binding to tubulin, and subsequently cooled on ice for 10 min. Then, the experiment starts at 4 °C to establish the initial baseline. The assembly process was initiated by a temperature shift to 37 °C and the turbidity produced by tubulin polymerization can be measured by an absorbance increase. After reaching a stable plateau, the temperature was switched back to 4 °C to return to the initial absorption values (to confirm the reversible nature of the monitored process and to determine whether or not the microtubular tubular protein has stabilized). The difference in amplitude between the stable plateau and the initial baseline of the curves was taken as the degree of tubulin polymerization for each experiment. Comparison with control curves under identical conditions but without ligands yielded TPI as a percentage value. All compounds were tested at 10 µM concentration. Compounds that inhibited tubulin polymerization by at least 30% at 10 µM were tested at 20 µM. IC50 values were calculated for compounds that inhibit tubulin polymerization by more than 50% at 20 µM. Compounds were dissolved in DMSO, and the final solvent concentration never exceeded 4% (v/v), which has been reported not to interfere with the assembly process. All the measurements were carried out in at least two independent experiments using microtubular protein from different preparations.

[3] = tested on: HeLa (cervix epithelioid carcinoma); assay: Antiproliferative activity against HeLa (XTT colorimetric method); format: cell-based; details: Homo sapiens, 72 h treatment
Method: as §1, §2, §3

Row | SMILES | IC50 [1] | IC50 [2] | TPI % 10 µM [2] | IC50 [3]
1 | COc1cc(NS(=O)(=O)c2ccc(N(C)C)cc2)cc(OC)c1OC [Compound 28] | 0.173 µM | > 20 µM | 0% | 0.23 µM
2 | COc1cc(N(C)S(=O)(=O)c2ccc(N(C)C)cc2)cc(OC)c1OC [Compound 29a] | 0.03 µM | > 20 µM | 40% | 0.063 µM
3 | CCN(c1cc(OC)c(OC)c(OC)c1)S(=O)(=O)c1ccc(N(C)C)cc1 [Compound 30] | 0.081 µM | > 20 µM | 45% | 0.066 µM
4 | COc1cc(N(C(C)=O)S(=O)(=O)c2ccc(N(C)C)cc2)cc(OC)c1OC [Compound 31] | 0.135 µM | 14 µM | 38% | 0.183 µM
5 | COc1cc(N(CC#N)S(=O)(=O)c2ccc(N(C)C)cc2)cc(OC)c1OC [Compound 32] | 0.12 µM | > 20 µM | 17% | 0.055 µM
6 | CCOC(=O)CN(c1cc(OC)c(OC)c(OC)c1)S(=O)(=O)c1ccc(N(C)C)cc1 [Compound 33] | 0.091 µM | > 20 µM | 14% | 0.099 µM
7 | COc1cc(N(CC(=O)O)S(=O)(=O)c2ccc(N(C)C)cc2)cc(OC)c1OC [Compound 34] | > 1 µM | > 20 µM | 6% | > 1 µM
8 | COc1cc(N(Cc2ccccc2)S(=O)(=O)c2ccc(N(C)C)cc2)cc(OC)c1OC [Compound 35a] | 0.1 µM | 5.3 µM | 72% | 0.33 µM
9 | COc1cc(N(C(=O)OCc2ccccc2)S(=O)(=O)c2ccc(N(C)C)cc2)cc(OC)c1OC [Compound 35b] | > 1 µM | > 20 µM | 0% | > 1 µM
10 | COc1cc(NS(=O)(=O)c2ccc(NC=O)cc2)cc(OC)c1OC [Compound 36] | > 1 µM | > 20 µM | 0% | > 1 µM
11 | CNc1ccc(S(=O)(=O)Nc2cc(OC)c(OC)c(OC)c2)cc1 [Compound 37] | > 1 µM | > 20 µM | 7% | 0.607 µM
12 | CNc1ccc(S(=O)(=O)N(C)c2cc(OC)c(OC)c(OC)c2)cc1 [Compound 38] | 0.061 µM | 10 µM | 47% | 0.044 µM
13 | COc1ccc(S(=O)(=O)Nc2cc(OC)c(OC)c(OC)c2)cc1[N+](=O)[O-] [Compound 40] | > 1 µM | > 20 µM | 0% | > 1 µM
14 | COc1ccc(S(=O)(=O)Nc2cc(OC)c(OC)c(OC)c2)cc1N [Compound 41] | 0.096 µM | > 20 µM | 15% | 0.26 µM
15 | COc1ccc(S(=O)(=O)N(C)c2cc(OC)c(OC)c(OC)c2)cc1N [Compound 42] | 0.026 µM | 12 µM | 41% | 0.023 µM
16 | CCN(c1cc(OC)c(OC)c(OC)c1)S(=O)(=O)c1ccc(OC)c(N)c1 [Compound 43] | 0.014 µM | > 20 µM | 37% | 0.038 µM
17 | COc1ccc(S(=O)(=O)N(CC#N)c2cc(OC)c(OC)c(OC)c2)cc1N [Compound 44] | 0.008 µM | > 20 µM | 5% | 0.06 µM
18 | COc1ccc(S(=O)(=O)N(Cc2ccccc2)c2cc(OC)c(OC)c(OC)c2)cc1N [Compound 45] | 0.048 µM | 3.7 µM | 75% | 0.025 µM
19 | CCOC(=O)CNc1cc(S(=O)(=O)N(C)c2cc(OC)c(OC)c(OC)c2)ccc1OC [Compound 46] | 0.048 µM | > 20 µM | 13% | 0.21 µM
20 | CCOC(=O)CNc1cc(S(=O)(=O)N(CC(=O)OCC)c2cc(OC)c(OC)c(OC)c2)ccc1OC [Compound 47] | > 1 µM | > 20 µM | 0% | > 1 µM
21 | CNc1cc(S(=O)(=O)N(C)c2cc(OC)c(OC)c(OC)c2)ccc1OC [Compound 48a] | 1.19 µM | > 20 µM | 2% | 0.44 µM
22 | COc1ccc(S(=O)(=O)N(C)c2cc(OC)c(OC)c(OC)c2)cc1N(C)C [Compound 48b] | > 1 µM | > 20 µM | 0% | > 1 µM
